Measured values published in patent US20260083865A1, “PROSTATE SPECIFIC MEMBRANE ANTIGEN (PSMA) LIGANDS AND USE THEREOF” (priority 2022, published 2026).
Numbered stars: 1 amine (or outer) side, 2 acyl side, 3 side chain; on linkers, the order of the positions; unused ones are H or OH. Bridge positions count the residues as written; N and C are the ends. Square brackets hold non-standard residues; d marks the D form. Peptide text beside a SMILES is read from it. * marks the point of attachment. TtdsdLys(DOTA)NH2 = NC(=O)[C@@H](CCCCNC(=O)CN1CCN(CC(=O)O)CCN(CC(=O)O)CCN(CC(=O)O)CC1)NC(=O)CCC(=O)NCCCOCCOCCOCCCN*; DO3AM = NC(=O)CN1CCN(CC(N)=O)CCN(CC(=O)*)CCN(CC(N)=O)CC1; DOTA = O=C(O)CN1CCN(CC(=O)O)CCN(CC(=O)*)CCN(CC(=O)O)CC1; X10 = NC(=O)CN1CCN(CC(=O)O)CCN(CC(=O)*)CCN(CC(=O)O)CC1; X16 = CNC(=N)N(C)CCC[C@H](N[*:1])C(=O)[*:2]; Phe(4-Cl) = N[C@@H](Cc1ccc(Cl)cc1)C(=O)O; Arg(Me) = CNC(=N)NCCC[C@H](N)C(=O)O; Ethylenediamine = C(CN[*:2])N[*:1]; X1 = O=C(CC1CCN([*:1])CC1)[*:2]; Lys(Me) = CNCCCC[C@H](N)C(=O)O; NMeN = CN[C@@H](CC(N)=O)C(=O)O; Tle = CC(C)(C)[C@H](N)C(=O)O; Nle = CCCC[C@H](N)C(=O)O; Aib = CC(C)(N)C(=O)O; βAla = NCCC(=O)O

Key:
[1] = target: T1, PSMA-expressing C4-2 cells (Homo sapiens, UniProt Q04609); assay: FACS binding assay (competition with 50 nM PSM-0183); conditions: for IC50: read-out: pIC50 [C4-2] CAT (converted)
T1 construct: PSMA-expressing C4-2 cells (ATCC, Cat. No. CRL-3314) were cultured in RPMI-1640; host or cells: C4-2 cells
Outline: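 C4-2 cells were incubated 1 h at 4 °C with 50 nM AF488-labelled peptide PSM-0183 plus increasing test compound concentrations, then washed twice in ice-cold buffer. Median fluorescence in the AF488 channel was read by flow cytometry. IC50/pIC50 was derived by 4PL fitting of MFI versus concentration.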

[2] = target: T2, Fc-fusion protein of human PSMA (hPSMA-Fc) (Homo sapiens, UniProt Q04609); assay: Surface plasmon resonance assay (Biacore T200, single cycle kinetic); format: binding; conditions: for Kd: read-out: pKD CAT (converted)
T2 construct: purchased Acro Biosystems PSA-H5264
Outline: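 hPSMA-Fc was captured (~1000 RU) on an Fc-binding-peptide CM5 chip, and compounds were run in single cycle kinetic mode at 25° C in HBST with 0.1% DMSO. Double-blank-corrected sensorgrams were fitted to a 1:1 Langmuir model to give KD, reported as pKD.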

[3] = FACS binding, C4-2 cells, category
[4] = pIC50 category of FACS binding, C4-2 cells
[5] = pKD category for PSMA SPR activity assay, hPSMA-Fc, 25° C.
[6] = FACS binding, C4-2 cells, competition with 50 nM PSM-0183, category
[7] = SPR, hPSMA-Fc, single cycle kinetic, 25° C., category

T1 sequence (Q04609 whole entry): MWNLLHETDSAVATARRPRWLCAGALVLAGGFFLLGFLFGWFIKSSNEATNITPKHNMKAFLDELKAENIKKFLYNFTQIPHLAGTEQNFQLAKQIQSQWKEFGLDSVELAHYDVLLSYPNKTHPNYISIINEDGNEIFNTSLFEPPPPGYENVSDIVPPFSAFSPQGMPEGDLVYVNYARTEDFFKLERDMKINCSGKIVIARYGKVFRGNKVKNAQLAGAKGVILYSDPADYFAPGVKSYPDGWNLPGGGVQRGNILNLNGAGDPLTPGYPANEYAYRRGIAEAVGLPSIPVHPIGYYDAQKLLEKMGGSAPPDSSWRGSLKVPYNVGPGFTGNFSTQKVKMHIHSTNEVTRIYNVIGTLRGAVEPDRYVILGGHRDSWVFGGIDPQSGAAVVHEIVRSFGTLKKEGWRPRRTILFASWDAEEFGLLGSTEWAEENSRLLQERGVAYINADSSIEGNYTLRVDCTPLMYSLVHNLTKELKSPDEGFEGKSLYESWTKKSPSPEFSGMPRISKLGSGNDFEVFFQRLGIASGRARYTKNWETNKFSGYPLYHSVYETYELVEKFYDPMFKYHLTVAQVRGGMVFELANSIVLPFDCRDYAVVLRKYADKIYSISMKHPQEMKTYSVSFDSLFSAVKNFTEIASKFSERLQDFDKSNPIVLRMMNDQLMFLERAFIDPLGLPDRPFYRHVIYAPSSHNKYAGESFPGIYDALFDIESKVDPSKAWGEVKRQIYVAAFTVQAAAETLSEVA
T2 sequence (Q04609 44-750 limits assumed): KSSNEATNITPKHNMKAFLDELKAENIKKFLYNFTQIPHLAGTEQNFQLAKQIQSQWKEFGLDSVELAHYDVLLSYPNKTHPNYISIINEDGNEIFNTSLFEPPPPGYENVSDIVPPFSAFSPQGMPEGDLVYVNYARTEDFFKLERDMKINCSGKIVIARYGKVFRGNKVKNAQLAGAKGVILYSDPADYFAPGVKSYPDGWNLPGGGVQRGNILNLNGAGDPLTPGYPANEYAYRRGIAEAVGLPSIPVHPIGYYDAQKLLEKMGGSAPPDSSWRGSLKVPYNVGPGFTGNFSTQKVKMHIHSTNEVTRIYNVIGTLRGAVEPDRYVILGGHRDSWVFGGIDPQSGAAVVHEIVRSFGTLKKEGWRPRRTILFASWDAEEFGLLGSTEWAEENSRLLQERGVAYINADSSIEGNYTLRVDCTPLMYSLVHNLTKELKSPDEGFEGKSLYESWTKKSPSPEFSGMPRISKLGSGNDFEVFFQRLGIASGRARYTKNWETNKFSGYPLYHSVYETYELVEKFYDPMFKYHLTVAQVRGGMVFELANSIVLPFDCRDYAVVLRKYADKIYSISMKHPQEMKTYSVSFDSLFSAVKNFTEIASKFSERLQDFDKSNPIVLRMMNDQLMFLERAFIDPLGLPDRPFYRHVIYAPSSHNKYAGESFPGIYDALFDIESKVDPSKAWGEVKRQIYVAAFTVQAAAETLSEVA

IC50 [1, 3] | Kd ([2]; PSMA SPR assay, category) | other results | Molecule
< 200 nM | 12.6 to 126 nM |  | C[C@@H]1NC(=O)[C@H](CCCNC(=N)N)NC(=O)[C@H](CCCCN)NC(=O)[C@@H](NC(=O)[C@H](Cc2ccc(Cl)cc2)NC(=O)C(C)(C)NC(=O)[C@@H](NC(=O)CC2CCN(C(=O)CN3CCN(CC(=O)O)CCN(CC(=O)O)CCN(CC(=O)O)CC3)CC2)[C@@H](C)O)CSSC[C@@H](C(=O)N[C@H](C(=O)N[C@H](C(N)=O)[C@@H](C)O)C(C)(C)C)NC(=O)[C@H](CC(N)=O)N(C)C1=O [PSM-0585, DOTA-Cmp-Thr-Aib-Pcf-[Cys-Lys-Arg-Ala-Nmn-Cys]-Tle-Thr-NH2] ({DOTA}-[X1]T[Aib][Phe(4-Cl)]CKRA[NMeN]C[Tle]T-NH2; disulfide 5-10)
> 3160 nM | > 501 nM |  | CCCC[C@H](NC(=O)[C@@H]1CSSC[C@H](NC(=O)[C@H](C)NC(=O)[C@H](C)NC(=O)[C@@H](NC(C)=O)[C@@H](C)O)C(=O)N[C@@H](CCCCN)C(=O)N[C@@H](CCCNC(=N)N)C(=O)N[C@@H](C)C(=O)N[C@@H](CC(N)=O)C(=O)N1)C(=O)N[C@H](C(=O)N[C@@H](CC(=O)O)C(N)=O)[C@@H](C)O [PSM-0586, Ac-Thr-Ala-Ala-[Cys-Lys-Arg-Ala-Asn-Cys]-Nle-Thr-Asp-NH2] (Ac-TAACKRANC[Nle]TD-NH2; disulfide 4-9)
< 200 nM | < 12.6 nM |  | CC(=O)N[C@H](C(=O)NC(C)(C)C(=O)N[C@@H](Cc1c[nH]c2ccccc12)C(=O)N[C@H]1CSSC[C@@H](C(=O)N[C@H](C(=O)N[C@H](C(=O)N[C@@H](CC(=O)O)C(N)=O)[C@@H](C)O)C(C)(C)C)NC(=O)[C@H](CC(N)=O)NC(=O)C(C)(C)NC(=O)[C@H](CCCNC(=N)N)NC(=O)[C@H](CCCCN)NC1=O)[C@@H](C)O [PSM-0587, Ac-Thr-Aib-Trp-[Cys-Lys-Arg-Aib-Asn-Cys]-Tle-Thr-Asp-NH2] (Ac-T[Aib]WCKR[Aib]NC[Tle]TD-NH2; disulfide 4-9)
< 200 nM | < 12.6 nM |  | CC(=O)N[C@H](C(=O)NC(C)(C)C(=O)N[C@@H](Cc1ccccc1)C(=O)N[C@H]1CSSC[C@@H](C(=O)N[C@H](C(=O)N[C@H](C(N)=O)[C@@H](C)O)C(C)(C)C)NC(=O)[C@H](Cc2c[nH]c3ccccc23)NC(=O)C(C)(C)NC(=O)[C@H](CCCNC(=N)N)NC(=O)[C@H](CCCCN)NC1=O)[C@@H](C)O [PSM-0589, Ac-Thr-Aib-Phe-[Cys-Lys-Arg-Aib-Trp-Cys]-Tle-Thr-NH2] (Ac-T[Aib]FCKR[Aib]WC[Tle]T-NH2; disulfide 4-9)
< 200 nM | < 12.6 nM |  | CNCCCC[C@@H]1NC(=O)[C@@H](NC(=O)[C@H](Cc2ccc(Cl)cc2)NC(=O)C(C)(C)NC(=O)[C@@H](NC(=O)CC2CCN(C(=O)CN3CCN(CC(=O)O)CCN(CC(=O)O)CCN(CC(=O)O)CC3)CC2)[C@@H](C)O)CSSC[C@@H](C(=O)N[C@H](C(=O)N[C@H](C(N)=O)[C@@H](C)O)C(C)(C)C)NC(=O)[C@H](CC(N)=O)NC(=O)C(C)(C)NC(=O)[C@H](CCCN(C)C(=N)NC)NC1=O [PSM-0590, DOTA-Cmp-Thr-Aib-Pcf-[Cys-Lys(Me)-RMe2a-Aib-Asn-Cys]-Tle-Thr-NH2] ({DOTA}-[X1]T[Aib][Phe(4-Cl)]C[Lys(Me)][X16][Aib]NC[Tle]T-NH2; disulfide 5-10)
> 3160 nM | > 501 nM |  | CC(=O)N[C@H]1CSSC[C@@H](C(=O)N[C@@H](CC(C)C)C(=O)N[C@H](C(=O)N[C@@H](CC(=O)O)C(=O)NCCCOCCOCCOCCCNC(=O)CCC(=O)N[C@H](CCCCNC(=O)CN2CCN(CC(=O)O)CCN(CC(=O)O)CCN(CC(=O)O)CC2)C(N)=O)[C@@H](C)O)NC(=O)[C@H](CC(N)=O)NC(=O)[C@H](C)NC(=O)[C@H](CCCNC(=N)N)NC(=O)[C@H](CCCCN)NC1=O [PSM-0591, Ac-[Cys-Lys-Arg-Ala-Asn-Cys]-Leu-Thr-Asp-Ttds-lys(DOTA)-NH2] (Ac-CKRANCLTD-{TtdsdLys(DOTA)NH2}; disulfide 1-6)
< 200 nM | < 12.6 nM |  | CNCCCC[C@@H]1NC(=O)[C@@H](NC(=O)[C@H](Cc2ccc(Cl)cc2)NC(=O)C(C)(C)NC(=O)[C@@H](NC(=O)CC2CCN(C(=O)CN3CCN(CC(N)=O)CCN(CC(N)=O)CCN(CC(N)=O)CC3)CC2)[C@@H](C)O)CSSC[C@@H](C(=O)N[C@H](C(=O)N[C@H](C(N)=O)[C@@H](C)O)C(C)(C)C)NC(=O)[C@H](CC(N)=O)NC(=O)C(C)(C)NC(=O)[C@H](CCCNC(=N)NC)NC1=O [PSM-0593, DOTAM-Cmp-Thr-Aib-Pcf-[Cys-Lys(Me)-Arg(Me)-Aib-Asn-Cys]-Tle-Thr-NH2] (DO3AM-[X1]T[Aib][Phe(4-Cl)]C[Lys(Me)][Arg(Me)][Aib]NC[Tle]T-NH2; disulfide 5-10)
1260 to 3160 nM | > 501 nM |  | CNCCCC[C@@H]1NC(=O)[C@@H](NC(=O)[C@H](Cc2ccc(Cl)cc2)NC(=O)C(C)(C)NC(=O)[C@@H](NC(=O)CC2CCN(C(=O)CN3CCN(CC(=O)O)CCN(CC(=O)O)CCN(CC(=O)O)CC3)CC2)[C@@H](C)O)CSSC[C@@H](C(=O)O)NC(=O)[C@H](CC(N)=O)NC(=O)C(C)(C)NC(=O)[C@H](CCCNC(=N)NC)NC1=O [PSM-0594, DOTA-Cmp-Thr-Aib-Pcf-[Cys-Lys(Me)-Arg(Me)-Aib-Asn-Cys]-OH] ({DOTA}-[X1]T[Aib][Phe(4-Cl)]C[Lys(Me)][Arg(Me)][Aib]NC-OH; disulfide 5-10)
< 200 nM | < 12.6 nM |  | CNCCCC[C@@H]1NC(=O)[C@@H](NC(=O)[C@H](Cc2ccc(Cl)cc2)NC(=O)C(C)(C)NC(=O)[C@@H](NC(=O)CC2CCN(C(=O)CN3CCN(CC(=O)O)CCN(CC(N)=O)CCN(CC(=O)O)CC3)CC2)[C@@H](C)O)CSSC[C@@H](C(=O)N[C@H](C(=O)N[C@H](C(N)=O)[C@@H](C)O)C(C)(C)C)NC(=O)[C@H](CC(N)=O)NC(=O)C(C)(C)NC(=O)[C@H](CCCNC(=N)NC)NC1=O [PSM-0601, LSC-Cmp-Thr-Aib-Pcf-[Cys-Lys(Me)-Arg(Me)-Aib-Aan-Cys]-Tle-Thr-NH] (X10-[X1]T[Aib][Phe(4-Cl)]C[Lys(Me)][Arg(Me)][Aib]NC[Tle]T-NH2; disulfide 5-10)
< 200 nM | < 12.6 nM |  | CNCCCC[C@@H]1NC(=O)[C@@H](NC(=O)[C@H](Cc2ccccc2)NC(=O)C(C)(C)NC(=O)[C@@H](NC(=O)CC2CCN(C(=O)CN3CCN(CC(=O)O)CCN(CC(=O)O)CCN(CC(=O)O)CC3)CC2)[C@@H](C)O)CSSC[C@@H](C(=O)N[C@H](C(=O)NCCN)C(C)(C)C)NC(=O)[C@H](CC(N)=O)NC(=O)C(C)(C)NC(=O)[C@H](CCCNC(=N)NC)NC1=O [PSM-605] ({DOTA}-[X1]T[Aib]FC[Lys(Me)][Arg(Me)][Aib]NC[Tle]-Ethylenediamine; disulfide 5-10)
< 200 nM | < 12.6 nM |  | CNCCCC[C@@H]1NC(=O)[C@@H](NC(=O)[C@H](Cc2ccc(Cl)cc2)NC(=O)C(C)(C)NC(=O)[C@@H](NC(=O)CC2CCN(C(=O)CN3CCN(CC(=O)O)CCN(CC(=O)O)CCN(CC(=O)O)CC3)CC2)[C@@H](C)O)CSSC[C@@H](C(=O)N[C@H](C(=O)NCCC(N)=O)C(C)(C)C)NC(=O)[C@H](CC(N)=O)NC(=O)C(C)(C)NC(=O)[C@H](CCCNC(=N)NC)NC1=O [PSM-606] ({DOTA}-[X1]T[Aib][Phe(4-Cl)]C[Lys(Me)][Arg(Me)][Aib]NC[Tle][βAla]-NH2; disulfide 5-10)
 |  | pIC50 [C4-2] CAT [1, 4]: A (pIC50 values >6.7); pKD CAT [2, 5]: A (pKD values >7.9) | Ac-Thr-Aib-Phe-[Cys-Lys-Arg-Aib-Asn-Cys]-Tle-Thr-Cmp-lys (InDOTA)-NH2 [PSM-0440]
 |  | pIC50 [C4-2] CAT ([1]; FACS binding, PSMA-expressing C4-2 cells, pIC50 category): A (pIC50 values >6.7); pKD CAT ([2]; PSMA SPR assay, hPSMA-Fc, 25° C., pKD category): A (pKD values >7.9) | Ac-Thr-Aib-Phe-[Cys-Lys-Arg-Aib-Asn-Cys]-Tle-Thr-Cmp-lys (LuDOTA)-NH2 [PSM-0347]
 |  | pIC50 [C4-2] CAT [1, 4]: A (pIC50 values >6.7); pKD CAT [2, 5]: A (pKD values >7.9) | InDOTA-Cmp-Thr-Aib-Pcf-[Cys-Lys(Me)-Arg(Me)-Aib-Asn-Cys]-Tle-NH2 [PSM-0519]
 |  | pIC50 [C4-2] CAT [1, 6]: A (pIC50 values >6.7); pKD CAT [2, 7]: A (pKD values >7.9) | InDOTA-Cmp-Thr-Aib-Phe-[Cys-Lys-Arg-Aib-Asn-Cys]-Tle-Thr-NH2 [PSM-0195]
 |  | pIC50 [C4-2] CAT [1, 3]: A (pIC50 values >6.7); pKD CAT ([2]; PSMA SPR assay, category): A (pKD values >7.9) | InLSC-Cmp-Thr-Aib-Pcf-[Cys-Lys(Me)-Arg(Me)-Aib-Asn-Cys]-Tle-Thr-NH2 [PSM-0604]
 |  | pIC50 [C4-2] CAT [1, 6]: A (pIC50 values >6.7); pKD CAT [2, 7]: A (pKD values >7.9) | nBuCAyl-Thr-Aib-Phe-[Cys-Lys-Arg-Aib-Asn-Cys]-Tle-Thr-Cmp-lys(InDOTA)-NH2 [PSM-0214]
